Experimental data taken from patent US20240279215A1 (Cytokinetics, Incorporated, priority 2022, published 2024).
Where “and” joins values, the source holds several entries; their conditions need not be identical. Equal entries are not always repeated.

Legend:
[1] = test system: MDCK-MDR1 cells (P-gp, MDR1); assay: MDR1-MDCK bidirectional permeability assay; settings: for PappAB: A to B
Method: (§1) A bidirectional permeability assay using Madin Darby canine kidney cells expressing multi-drug resistance gene 1 (MDCK-MDR1) is routinely used to evaluate discovery compounds' BBB permeability and drug efflux toward the advancement of discovery compounds with brain penetration.
(§2) MDCK-MDR1 Cells (NIH cell line) were obtained from the National Institutes of Health. […] Cell culture medium was replaced every other day, beginning no later than 24 hours after the initial plating. […] The dosing solution concentration was 1 μM for the test article in the assay buffer. Cell monolayers were dosed on the apical side (A-to-B) or basolateral side (B-to-A) and incubated at 37° C. under an atmosphere of 5% CO2 in a humidified incubator. Samples were taken from the donor and receiver chambers at 120 minutes. Each determination was performed in duplicate. After the 120 min transport period, the flux of lucifer yellow was also measured for each monolayer to ensure no damage was inflicted to the cell monolayers during the transport period. All samples were assayed by LC-MS/MS (Waters XSelect HSS T3 C18, 2.5 m, 2.1×50 mm) using electrospray ionization with 0.1% formic acid in water (mobile phase A) and 0.1% formic acid in acetonitrile (mobile phase B) as mobile phases. The apparent permeability coefficient (Papp), in units of cm per second, was calculated for MDCK-MDR1 Cells (NIH cell line) drug transport assays using the following equation:
(§3) Where VA is the volume (in mL) in the acceptor well, Area is the surface area of the membrane (0.143 cm^2 for Transwell-96 Well Permeable Supports), and time is the total transport time in seconds.
(§4) The leakage of Lucifer Yellow (LY), in unit of percentage (%), can be calculated using the following equation:
(§5) LY leakage of <1% is acceptable to indicate the well-qualified MDCK-MDR1(NIH) monolayer.

P-gp (MDR1) = assay: MDR1-MDCK bidirectional permeability assay; settings: dog, MDCK-MDR1, pH 7.4, Efflux ratio
Method: as §1, §2, §3, §4, §5

human NAMPT = human NAMPT (Homo sapiens (Human), UniProt P43490); assay: NMN fluorescence biochemical assay (human recombinant NAMPT enzyme assay)
Sequence of human NAMPT (P43490 whole entry): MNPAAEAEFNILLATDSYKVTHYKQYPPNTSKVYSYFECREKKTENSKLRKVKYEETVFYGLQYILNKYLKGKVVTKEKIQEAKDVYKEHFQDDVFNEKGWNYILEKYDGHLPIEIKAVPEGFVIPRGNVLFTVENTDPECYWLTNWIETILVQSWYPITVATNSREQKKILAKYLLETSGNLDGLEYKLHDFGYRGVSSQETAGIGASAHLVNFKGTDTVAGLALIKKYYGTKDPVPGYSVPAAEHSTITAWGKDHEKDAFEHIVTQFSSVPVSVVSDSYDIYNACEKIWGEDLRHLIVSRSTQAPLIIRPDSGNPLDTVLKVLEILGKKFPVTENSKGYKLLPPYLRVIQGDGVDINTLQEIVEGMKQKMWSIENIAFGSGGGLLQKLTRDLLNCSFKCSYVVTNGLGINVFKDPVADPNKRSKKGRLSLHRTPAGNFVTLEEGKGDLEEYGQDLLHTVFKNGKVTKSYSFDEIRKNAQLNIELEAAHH
How it was run: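 Activation of recombinant human NAMPT (6 nM) was tested with 2.5 mM ATP, 20 μM PRPP and 150 μM nicotinamide in 50 mM HEPES pH 7.2 for 60 min at ambient temperature. NMN was derivatized with acetophenone/KOH/formic acid and read by fluorescence (355/460 nm) after 40 min.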

PappAB [1]	efflux ratio at 120 min, 1 μM (P-gp (MDR1))	AC1.4 Human (human NAMPT) [µM]	EC50 (human NAMPT) [µM]	Efflux ratio [1]	Molecule
1.85	14.7	–	–	–	O=C(NCc1ccc(Cl)cc1)Nc1ccc(CC2CCN(C3COC3)CC2)cc1 [Comparator 1, 1-(4-chlorobenzyl)-3-(4-((1-(oxetan-3-yl)piperidin-4-yl)methyl)phenyl)urea, reference compound]
5.32	7.02	0.07	0.29	–	O=C(Nc1ccc(CN2CCC[C@@H]2c2cccnc2)cc1)OCc1ccc(CO)cc1 [Compound 5, [4-(hydroxymethyl)phenyl]methyl N-(4-{[(2R)-2-(pyridin-3-yl)pyrrolidin-1-yl]methyl}phenyl)carbamate]
9.77	5.41	0.14	32.6	–	CC(=O)N1CCC(c2ccc(NC(=O)OCc3cnco3)cc2)CC1 [Compound 8, 1,3-oxazol-5-ylmethyl N-[4-(1-acetylpiperidin-4-yl)phenyl]carbamate]
2.79	3.74	0.30	2	–	Cc1ccc(C(=O)NCc2ccc(NC(=O)OCc3ccc(Cl)cc3)cc2)cn1 [Compound 21, (4-chlorophenyl)methyl N-(4-{[(6-methylpyridin-3-yl)formamido]methyl}phenyl)carbamate]
6.30	2	0.32	2.76	–	COC(=O)N1CCC(Cc2ccc(NC(=O)OCc3ccncc3)cc2)CC1 [Compound 23, methyl 4-(4-(((pyridin-4-ylmethoxy)carbonyl)amino)benzyl)piperidine-1-carboxylate]
5.57	3.32	0.38	21	–	CN(C)C(=O)N1CCC(CCc2ccc(NC(=O)OCc3cnco3)cc2)CC1 [Compound 32, oxazol-5-ylmethyl (4-(2-(1-(dimethylcarbamoyl)piperidin-4-yl)ethyl)phenyl)carbamate]
3.38 and 3.4	1.93	0.43	2.4	1.9	CC(=O)N1CCC(Cc2ccc(NC(=O)OCc3ccc(Cl)cc3)cc2)CC1 [Compound 40, 4-chlorobenzyl (4-((1-acetylpiperidin-4-yl)methyl)phenyl)carbamate]
5.39 and 5.4	0.92	0.45	4.56	–	O=C(Nc1ccc(CC2CCN(C3COC3)CC2)cc1)OCc1ccc(Cl)cc1 [Compound 43, 4-chlorobenzyl (4-((1-(oxetan-3-yl)piperidin-4-yl)methyl)phenyl)carbamate]
13.26	1.11	0.56	48.9	–	O=C(Nc1ccc(CC2CCN(CC(F)F)CC2)cc1)OCc1cnco1 [Compound 59, oxazol-5-ylmethyl (4-((1-(2,2-difluoroethyl)piperidin-4-yl)methyl)phenyl)carbamate]
9.10	1.04	0.61	22.9	–	O=C(Nc1ccc(CC2CCN(CC(F)(F)F)CC2)cc1)OCc1cnco1 [Compound 70, oxazol-5-ylmethyl (4-((1-(2,2,2-trifluoroethyl)piperidin-4-yl)methyl)phenyl)carbamate]
13.54	2.26	1.06	41.1	–	O=C(Nc1ccc(CCC2CCN(C3COC3)CC2)cc1)OCc1cnco1 [Compound 132, oxazol-5-ylmethyl (4-(2-(1-(oxetan-3-yl)piperidin-4-yl)ethyl)phenyl)carbamate]
9.8	1.5	2.17	20.8	–	O=C(Nc1ccc(COC2CCN(C3COC3)CC2)cc1)OCc1ccc(Cl)cc1 [Compound 232, 4-chlorobenzyl (4-(((1-(oxetan-3-yl)piperidin-4-yl)oxy)methyl)phenyl)carbamate]
9.11	2.19	0.14	3.07	–	CC(C)S(=O)(=O)N1CCC(Cc2ccc(NC(=O)OCc3cnco3)cc2)CC1 [Compound 464, oxazol-5-ylmethyl (4-((1-(isopropylsulfonyl)piperidin-4-yl)methyl)phenyl)carbamate]
–	–	0.14	7.25	–	O=C(Nc1ccc(CC2CCN(S(=O)(=O)N3CCC3)CC2)cc1)OCc1cnco1 [Compound 465, oxazol-5-ylmethyl (4-((1-(azetidin-1-ylsulfonyl)piperidin-4-yl)methyl)phenyl)carbamate]
–	–	1.19	14.5	–	O=C(Nc1ccc(CC2CCN(C3COC3)CC2)cc1)OCc1cncs1 [Compound 466, thiazol-5-ylmethyl (4-((1-(oxetan-3-yl)piperidin-4-yl)methyl)phenyl)carbamate]
–	–	1.07	14.5	–	O=C(Nc1ccc(CC2CCN(CC(F)(F)F)CC2)cc1)OCc1cncs1 [Compound 467, thiazol-5-ylmethyl (4-((1-(2,2,2-trifluoroethyl)piperidin-4-yl)methyl)phenyl)carbamate]
–	–	0.13	14.5	–	O=C(Nc1ccc(CC2CCN(C(=O)N3CCC3)CC2)cc1)OCc1cnco1 [Compound 468, oxazol-5-ylmethyl (4-((1-(azetidine-1-carbonyl)piperidin-4-yl)methyl)phenyl)carbamate]
–	–	0.24	26.1	–	O=C(Nc1ccc(CC2CCN(C(=O)C3CCC3)CC2)cc1)OCc1cnco1 [Compound 469, oxazol-5-ylmethyl (4-((1-(cyclobutanecarbonyl)piperidin-4-yl)methyl)phenyl)carbamate]
–	–	0.98	37.5	–	O=C(Nc1ccc(CC2CCN(C(=O)C3CC(F)(F)C3)CC2)cc1)OCc1cnco1 [Compound 470, oxazol-5-ylmethyl (4-((1-(3,3-difluorocyclobutane-1-carbonyl)piperidin-4-yl)methyl)phenyl)carbamate]
–	–	0.50	15	–	O=C(Nc1ccc(CC2CCN(CC3CCO3)CC2)cc1)OCc1cnco1 (stereo not drawn) [Compound 471, oxazol-5-ylmethyl (4-((1-(oxetan-2-ylmethyl)piperidin-4-yl)methyl)phenyl)carbamate]
–	–	0.11	5.63	–	CC(=O)N1CC2(CC(Cc3ccc(NC(=O)OCc4cnco4)cc3F)C2)C1 [Compound 472, oxazol-5-ylmethyl (4-((2-acetyl-2-azaspiro[3.3]heptan-6-yl)methyl)-3-fluorophenyl)carbamate]

Molecule	PappAB [1]	efflux ratio at 120 min, 1 μM (P-gp (MDR1))	AC1.4 Human (human NAMPT) [µM]	EC50 (human NAMPT) [µM]	Efflux ratio [1]
tert-butyl 4-(4-(((oxazol-5-ylmethoxy)carbonyl)amino)phenethyl)piperidine-1-carboxylate [Compound 121]	–	–	0.97	14.5	–
